Test results: the supplement of paper PMC6045584
± gives the standard deviation of the averaged measurements.

Experiments:
PLX-4720 = compound: CCCS(=O)(=O)Nc1ccc(F)c(C(=O)c2c[nH]c3ncc(Cl)cc23)c1F [PLX-4720]; test: surviving fraction relative to DMSO-only wells; higher = less growth inhibition; settings: exposure time: 5 days
In short: (§1)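 After seeding at 250–500 cells per well in 384-well plates and a 24-hour wait, log-phase tumour cell lines were exposed without interruption for five days to inhibitors at 0.5, 1, 5, 10, 50, 100, 500 and 1000 nM. CellTiter-Glo luminescence was recorded after 10 minutes at room temperature. Viability is reported as surviving fraction, the luminescence normalised to the median of DMSO-only wells.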

AZD4547 = compound: COc1cc(CCc2cc(NC(=O)c3ccc(N4CC(C)NC(C)C4)cc3)n[nH]2)cc(OC)c1 [AZD4547]; test: as above; settings: exposure time: 5 days
In short: as §1

Row | Test System | surviving fraction (PLX-4720; 0.5 nM) | surviving fraction (PLX-4720; 1 nM) | surviving fraction (PLX-4720; 5 nM) | surviving fraction (PLX-4720; 10 nM) | surviving fraction (PLX-4720; 50 nM) | surviving fraction (PLX-4720; 100 nM) | surviving fraction (PLX-4720; 500 nM) | surviving fraction (PLX-4720; 1000 nM) | surviving fraction (AZD4547; 0.5 nM) | surviving fraction (AZD4547; 1 nM) | surviving fraction (AZD4547; 5 nM) | surviving fraction (AZD4547; 10 nM) | surviving fraction (AZD4547; 50 nM) | surviving fraction (AZD4547; 100 nM) | surviving fraction (AZD4547; 500 nM) | surviving fraction (AZD4547; 1000 nM)
1 | HT1080 SOFT TISSUE | 0.981 ± 0.049 | 0.994 ± 0.073 | 0.988 ± 0.025 | 0.989 ± 0.031 | 1.01 ± 0.038 | 0.979 ± 0.031 | 0.934 ± 0.042 | 0.885 ± 0.033 | 1.04 ± 0.048 | 1.03 ± 0.025 | 1.01 ± 0.031 | 1 ± 0.0068 | 0.979 ± 0.016 | 0.9753 ± 0.0087 | 0.936 ± 0.03 | 0.817 ± 0.065
2 | SUM44 BREAST | 0.9 ± 0.025 | 0.868 ± 0.058 | 0.932 ± 0.011 | 0.969 ± 0.022 | 1.07 ± 0.072 | 1.02 ± 0.052 | 0.946 ± 0.045 | 0.92 ± 0.03 | 0.9847 ± 0.0095 | 1.02 ± 0.029 | 0.985 ± 0.042 | 1.08 ± 0.064 | 1.11 ± 0.019 | 1.06 ± 0.011 | 1.09 ± 0.066 | 1.07 ± 0.05
3 | OSHN BONE | 0.859 ± 0.011 | 0.882 ± 0.017 | 0.89 ± 0.025 | 0.904 ± 0.018 | 0.944 ± 0.035 | 0.9783 ± 0.0029 | 0.978 ± 0.019 | 0.975 ± 0.016 | 1.06 ± 0.02 | 1.09 ± 0.044 | 1.09 ± 0.044 | 1.11 ± 0.048 | 1.07 ± 0.023 | 1.1 ± 0.044 | 1.07 ± 0.042 | 1.06 ± 0.011
4 | PCI30 HEADNECK | 1.03 ± 0.057 | 0.987 ± 0.0079 | 1.01 ± 0.032 | 1.06 ± 0.011 | 1 ± 0.024 | 1.07 ± 0.082 | 0.938 ± 0.087 | 0.959 ± 0.07 | 0.998 ± 0.026 | 0.966 ± 0.082 | 1.09 ± 0.12 | 1.09 ± 0.094 | 1.16 ± 0.061 | 1.17 ± 0.11 | 1.1 ± 0.012 | 0.999 ± 0.07
5 | MFM223 BREAST | 0.709 ± 0.032 | 0.758 ± 0.066 | 0.691 ± 0.098 | 0.754 ± 0.057 | 0.97 ± 0.11 | 1.01 ± 0.062 | 0.981 ± 0.025 | 1.01 ± 0.11 | 1.02 ± 0.11 | 1.03 ± 0.034 | 0.616 ± 0.056 | 0.374 ± 0.041 | 0.244 ± 0.018 | 0.254 ± 0.015 | 0.298 ± 0.015 | 0.3 ± 0.021
